How the values were obtained:
secreted Aβ1-40 = experiment: Aβ1-40 secretion by APP-transfected neuroblastoma cells (ELISA); format: cell-based; conditions: Homo sapiens, Neuroblastoma cell; SKNSH-SYSY APPWT cells; concentration decreasing secreted Aβ1-40 to 50% of basal amount
Description: (§1) Cell Cultures and Transfections to Test Activity on Aβ1-40 and Aβ1-42 Secretion
(§2) Human neuroblastoma cell line SKNSH-SYSY (ATCC® Catalog No. CRL-2266™), HEK (ATCC® CRL-1573™) and COS-1 (ATCC® CRL-1650™) cells were maintained in Dulbecco's modified Eagle medium (DMEM, GIBCO BRL) supplemented with 10% fetal calf serum, 2 mM L-glutamine, 1 mM non-essential amino acids, 50 units/ml penicillin/streptomycin (Invitrogen, France) in a 5% CO2 humidified incubator at 37° C. APP695 cDNA was subcloned into eukaryotic expression vector pcDNA3 (Invitrogen), allowing for a G418 (Invitrogen) selection of clones. This APP cDNA coding for the 695 amino acid long isoform was transfected into SKNSH-SYSY cells using the ethyleneimine polymer ExGen 500 (Euromedex) according to the manufacturer's instructions. The cells expressing APP (SKNSH-SYSY APP^WT) were selected by the addition of 200 μg/ml G418 in the cell medium. To quantify AR which released in the cell culture medium, the collected medium was spun at 200×g to eliminate the cell debris. The concentrations of secreted Aâ1-40 and Aβ1-42 were determined using the Human Aβ (1-40) Assay Kit (IBL) or the INNOTEST™ beta-Amyloid (1-42) ELISA Kit (Innogenetics), according to manufacturer's instructions. The results were expressed as IC50, i.e. the concentration able to decrease to 50% the basal amount of secreted Aβ peptide 1-40 and 1-42.

secreted Aβ1-42 = experiment: Aβ1-42 secretion by APP-transfected neuroblastoma cells (ELISA); format: cell-based; conditions: Homo sapiens, Neuroblastoma cell; SKNSH-SYSY APPWT cells; concentration decreasing secreted Aβ1-42 to 50% of basal amount
Description: as §1, §2

AICD = experiment: Quantification of AICD by Western blot in SY5Y-APPWT cells; format: cell-based, Human; conditions: compared to a control with a value of 100
Description: (§3) Quantifications of APP-CTFs and AICD
(§4) After treatment, SY5Y-APP^WT cells were scrapped and lysed in 1× Lysis Buffer (250 mM NaCl, 50 mM Tris, pH 8.8, 5 mM EDTA, 2.5% Triton X-100, 1% Deoxycholate, 0.1% SDS). For the Western blotting, an equal amount of total proteins (20 μg/lane) was loaded on a 16.5% Tris-Tricine or 8-16% Tris-Glycine polyacrylamide gel.
(§5) SDS-polyacrylamide gel electrophoresis (PAGE) was performed using the Criterion™ Tris-Tricine-precast or Bis-Tris-precast criterion gels (Bio-Rad Bioresearch division). Proteins were transferred to a […] nitrocellulose membrane (Hybond, Amersham Biosciences) at 2.5 mA/cm2 per gel using the Criterion™ Blotter system (Amersham Biosciences), according to the manufacturer's instructions. Proteins were reversibly stained with Ponceau Red in order to check the quality of the transfer of protein. The membranes were blocked in 25 mM Tris-HCl pH 8.0, 150 mM NaCl, 0.1% Tween-20 (v/v) and 5% (w/v) of skimmed milk for 30 min. Membranes were incubated overnight at 4° C. with appropriate dilution of the primary antibodies, and were incubated for 1 h at room temperature with secondary antibody. […] Quantifications were calculated with Image J software (NIH) and the data were collected using Excel Software (Microsoft). The loading variations between Western blot lanes were normalized according to the tubulin signal. Quantification of CTFα and AICD were compared to control conditions (considered as 100 in arbitrary units) and are presented for two concentrations of the drug: 1 and 10 μM.

CTFα [1] = experiment: Quantification of APP-CTFα by Western blot in SY5Y-APPWT cells; format: cell-based, Human; conditions: compared to a control with a value of 100
Description: as §3, §4, §5

[2] = Cytotoxicity evaluation (MTS assay); format: cell-based, Human; conditions: human, SY5Y-APPWT neuroblastoma cells (expressing APP); SY5Y-APPWT cells, 24 h treatment, MTS
Description: (§6) Human neuroblastoma cell line SY5Y-APP^WT was used to assess the cytotoxic effects of each compound. SY5Y-APP^WT cells were seeded at 20000 cells/well onto 96-well plates and were cultured in Dulbecco's modified Eagle medium (DMEM, Invitrogen) supplemented with 10% fetal calf serum (PAA), 2 mM L-glutamine (Invitrogen), 1 mM non-essential amino acids (Invitrogen), 50 units/ml penicillin/streptomycin (Invitrogen), and 200 μg G418=geneticin (Invitrogen) (selection for cells expressing APP) in a 5% CO2 humidified incubator at 37° C. After 24 h, the cells were washed and incubated with the compound at 0.1; 0.3; 1; 3; 10; 30 and 100 μM or with DMSO as control diluted in the same culture medium at 37° C. in 5% CO2. After 24 h of treatment, cytotoxicity was determined by using colorimetric MTS assay (CellTiter 96® Aqueous One Solution Cell Proliferation Assay-MTS Promega) according to the protocol of the manufacturer. Absorbance was read at 490 nm and results were expressed as % from control condition considered as 100%.

[3] = target: T1, HIS-tagged valosin-containing protein/p97 (VCP/p97) (Homo sapiens, UniProt P55072); experiment: VCP interaction assay (competition with biotinylated probe 4.7); format: binding; conditions: compound 60 μM against biotinylated probe 4.7 20 μM
T1 construct: purchased TebuBio
T1 sequence (P55072 whole entry): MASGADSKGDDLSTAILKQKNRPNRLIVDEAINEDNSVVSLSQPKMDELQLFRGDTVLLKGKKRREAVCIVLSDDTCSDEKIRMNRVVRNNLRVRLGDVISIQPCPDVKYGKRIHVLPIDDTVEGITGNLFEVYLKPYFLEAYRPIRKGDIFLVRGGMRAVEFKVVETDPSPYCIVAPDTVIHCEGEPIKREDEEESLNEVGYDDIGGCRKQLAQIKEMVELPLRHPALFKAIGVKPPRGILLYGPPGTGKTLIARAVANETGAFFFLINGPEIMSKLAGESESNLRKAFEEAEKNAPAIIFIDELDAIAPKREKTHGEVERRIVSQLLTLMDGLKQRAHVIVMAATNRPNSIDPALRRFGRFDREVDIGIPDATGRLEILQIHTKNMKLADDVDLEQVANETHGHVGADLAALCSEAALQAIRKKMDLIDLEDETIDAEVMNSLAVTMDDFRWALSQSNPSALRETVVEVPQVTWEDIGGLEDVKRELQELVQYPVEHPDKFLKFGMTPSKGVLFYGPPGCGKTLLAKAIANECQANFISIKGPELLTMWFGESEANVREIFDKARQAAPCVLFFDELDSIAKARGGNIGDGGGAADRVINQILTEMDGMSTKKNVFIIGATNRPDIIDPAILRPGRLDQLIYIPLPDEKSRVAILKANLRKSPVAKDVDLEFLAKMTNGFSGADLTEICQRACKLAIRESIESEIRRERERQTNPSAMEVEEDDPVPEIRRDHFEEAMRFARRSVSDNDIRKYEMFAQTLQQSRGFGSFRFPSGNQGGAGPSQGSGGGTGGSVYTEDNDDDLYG
Description: Physical interaction between HIS-tagged valosin-containing protein/p97 (VCP/p97) (TebuBio) and biotinylated probe 4.7 was investigated by Enzyme-Linked Assay (ELA) based on HIS-Select® High Sensitivity Nickel coated plates, used following manufacturer's recommendations (Sigma Aldrich). Other chemical compounds were tested in competition with the biotinylated probe 4.7 in this system. Briefly, nickel beads were incubated overnight at 4° C. with 2% casein blocking solution. After a three-time rinse with wash buffer (0.05% Tween20 in phosphate buffer saline), HIS-tagged VCP/p97 protein (5 μg/ml in PBS) was incubated with nickel beads for 90 min at 25° C. Then, the plate was washed three times. Chemical compounds (60 μM) were incubated 10 min at 25° C. before addition of biotinylated probe 4.7 (20 μM) 30 min at 25° C. After five washes, streptavidin-peroxidase (2 μg/ml) was added during 1 h at 25° C., followed by the peroxidase substrate addition 30 min at RT. Reaction was stopped with 0.5M H2SO4 solution and the optical density was read at 450 nm using a microplate reader (VICTOR X4 Wallac, 2030-0040, PerkinElmer). Competition efficiency was quantified by the loss of signal compared to the control condition.

SY5Y-APPWT cells = experiment: Cytotoxicity evaluation (MTS assay); format: cell-based, Human; conditions: comparative statement
Description: as §6

sAPPα = experiment: Soluble APPα quantification (ELISA); format: cell-based, Human; conditions: 24 h, control considered as 100
Description: Soluble APPα Quantification
Human neuroblastoma cell line SKNSH-SYSY APP′ was cultured in Dulbecco's modified Eagle medium (Invitrogen) supplemented with 10% fetal calf serum (PAA), 2 mM L-glutamine (Invitrogen), 1 mM non-essential amino acids (Invitrogen), 50 units/ml penicillin/streptomycin (Invitrogen), and 200 μg G418=geneticin (Invitrogen) (selection for cell expressing APP) in a 5% CO2 humidified incubator at 37° C. Cells were counted and seed at 400000 cells/well into a 12-wells plate for 24 h. The day after, cells were treated with 700 μL/well of drug at 0.3; 1; 3 and 10 μM and incubated for 24 h in a 5% CO2 incubator at 37° C. After treatment, culture medium samples were collected and stored at −80° C. until analysis. Samples corresponding to the 1 and 10 μM treatment were centrifuged 1500 rpm for 5 min at 4° C. sAPPα quantification by ELISA was done with Human sAPPα Assay Kit-IBL (Cat#27734) in accordance with manufacturer's protocol. Samples were diluted at 1:150 in the diluent buffer provided in the kit. Each sample was loaded in duplicate onto the 96 well-plate. Results are expressed in ng/ml and then compared to control conditions (considered as 100 in arbitrary units) and are presented for two concentrations of the drug: 1 and 10 μM.

CTFα [4] = experiment: In vivo chronic treatment, CTFα in brain tissue; parameters: species or system C57Bl6 mice; conditions: 12 weeks in drinking water, 3 mg/kg
Description: In Vivo Chronic Treatment
Female C57Bl6 mice of 4 month-old were treated with either vehicle (control) or drug at 1 and 3 mg/kg (n=10 per group) for 12 weeks in drinking water. First of all, all mice were weighted and distributed in each cage in order to have approximately the same average of weight±SD per cage. Each concentration of product as well as vehicule was prepared in sterile bottles and the bottles were kept at room temperature protected from light. The drinking bottles were filled weekly and weighted. Volume consumed was calculated by weighting each bottle after each week and the remaining volume was discarded. After 12 weeks, mice were sacrificed and their troncal blood was collected and stored at 4° C. Brains were immediately removed to dissect the Frontal Cortex, the Cortex around the Hippocampus and the Hippocampus. These areas were stored at −80° C. until use. Blood was then centrifuged at 2100×g for 5 min. Resulting plasma was used to quantify the circulating drug and brain tissues were used for biochemical determinations (PFC: prefrontal cortex and HIP: hippocampus).

[5] = Metabolic stability (method not described); conditions: comparative statement

Row | SMILES | IC50 (secreted Aβ1-40) [nM] | IC50 (secreted Aβ1-42) [nM] | AICD (10 μM) (AICD) [arbitrary units] | CTFα (10 μM) (CTFα [1]) [arbitrary units] | CC50 at 24 h [2] [nM] | VCP (competition efficiency, loss of signal compared to the control) [3] [%] | toxicity (in words) (SY5Y-APPWT cells) | sAPPα (10 μM) (sAPPα) [arbitrary units] | increase of CTFα in hippocampus (HIP) (CTFα [4]) [%] | increase of CTFα in prefrontal cortex (PFC) (CTFα [4]) [%] | metabolic stability (in words) [5]
1 | CN(C)CCCN1CCN(CCCN2CCc3c([nH]c4ccccc34)C2c2ccccc2)CC1 (stereo not drawn) [Compound 3.2e, N,N-dimethyl-3-(4-(3-(1-phenyl-1,3,4,9-tetrahydro-1H-beta-carbolin-2-yl)propyl)piperazin-1-yl)propylamine] | 2500 | 2000 | 4765 | 234 | 12000 | – | – | – | – | – | –
2 | CN(C)CCCN1CCN(CCCN2CCc3c([nH]c4ccccc34)C2)CC1 [Compound 3.2d, N,N-dimethyl-3-(4-(3-(1,3,4,9-tetrahydro-1H-beta-carbolin-2-yl)propyl)piperazin-1-yl)propylamine] | > 10000 | > 10000 | 41661 | 1042 | > 100000 | 70 | – | – | – | – | –
3 | Fc1ccc2[nH]c3c(c2c1)CN(CCCN1CCN(CCCN2CCCC2)CC1)CC3 [Compound 3.1f, 8-Fluoro-2-{3-[4-(3-(pyrrolidin-1-yl)propyl)piperazin-1-yl]propyl}-2,3,4,5-tetrahydro-1H-pyrido[4,3-b]indole] | 3000 | 1000 | 1011 | – | > 100000 | – | less toxic | 100 | 25 | 20 | metabolically more stable

— patent US9714245B2, “Carboline compounds usable in the treatment of neurodegenerative diseases” (ALZPROTECT, priority 2013, dated 2017)
